Laboratory results published in US9604997B2, “Peri-carbinols” (ALDEXA THERAPEUTICS, INC., priority 2012, dated 2017).

What was measured:
[1] = Imine/oxaminal tautomerism of RAL-drug adducts by 1H NMR in CDCl3; assay type: physicochemical; details: in CDCl3 at 25° C.; for ΔGT, free energy change of tautomerism from imine to oxaminal (ring closed): ΔGT=−RT ln KT
Protocol: [formula] ΔGT: free energy change of tautomerism from imine to oxaminal. ΔGT=−RT ln KT (4) General Methods.
Preparation of the adducts RAL-1, RAL-2 and RAL-3 of RAL with Compounds 1, 2 and 3. Mixtures of 25.6 mg (0.09 mmol) RAL and 0.11 mmol of either Compound 1 or 2, or Compound 3 (2-[3-amino-6-chloroquinolin-2-yl]propan-2-ol, wherein the carbinol has no peri-interaction), in 1 mL dry benzene were stirred in the dark under argon at room temperature for 1 hr. The mixtures were evaporated to dryness and the residues evaporated twice from 2 mL benzene. The residues were dissolved in 1 mL benzene, allowed to stand 1 hr at room temperature and evaporated to dryness. The residues were evaporated from benzene (3×2 mL), redesolved in 0.5 mL dry benzene, and the solutions loaded on silica gel columns. The columns were first eluted with hexanes, and further eluted with 50:1 (v/v) hexanes-ethyl acetate. The fractions containing the adducts were evaporated to dryness to provide pure RAL-1, RAL-2 and RAL-3. The adducts were dissolved in 0.8 mL dry CDCl3, and the ratio of imine and oxaminal tautomers were determined from their ^1H NMR spectra. The values of KT and ΔGT were calculated according to equations (3) and (4).

[2] = RAL depletion kinetics by drug in rod outer segment preparation; assay type: biochemical, bovine; details: for Kapp, apparent equilibrium constant of RAL depletion by drug: rod outer segment prep containing 64 μM opsin at 37° C.; for kapp, apparent second order rate constant of RAL depletion by drug / ΔGapp, apparent free energy change of RAL depletion by drug: rod outer segment preparation containing 64 μM opsin at 37° C.; for ΔGapp, apparent free energy change of RAL depletion by drug: ΔGapp=−RT ln Kapp
Source text: The parameters associated with the analysis of RAL depletion kinetics are as follows:
[drawing 47] kapp: apparent second order rate constant of RAL depletion by drug. Kapp: apparent equilibrium constant of RAL depletion by drug.
[formula] ΔGapp: apparent free energy change of RAL depletion by drug. ΔGapp=−RT ln Kapp (2) KT: equilibrium constant of tautomerism from imine (ring opened) to oxaminal (ring closed).
Determination of kapp, Kapp and ΔGapp in rod outer segments. Frozen bovine rod outer segment preparation (64 μM of opsin) was thawed and vortexed thoroughly. A 200 μL aliquot of this sample was transferred into a 0.5 mL Eppendorf tube. To it was added 10 μL of 20 mM drug stock solution in EtOH, and the mixture vortexed for 1 min. The tube was incubated at 37° C. in a Thermo Scientific microprocessor controlled 280 series water bath for 3 min before 5 μL freshly prepared 2.4 mM RAL solution in EtOH was added (the nominal starting concentrations of drug and RAL are 1.00 mM and 60 μM, respectively). After vortexing for 1 min, the tube was incubated at 37° C. and aliquots of the reaction mixture (25 μL each) were taken periodically and added onto 10 mg of solid NaBH4 in a 0.5 mL Eppendorf tube. To the latter was added 400 μL of 2:1 (v/v) EtOH/HOAc. The reduction mixture was vortexed for 1 min and centrifuged. The supernatant was separated, and analyzed by HPLC using a standard HPLC method: • Instrument: HPLC-PE-97 • Column: Waters Sunfire C18 3.5 μm/4.6×100 mm column • Solvent A: 0.05% HCOOH/95% HPLC grade water/5% HPLC grade MeCN • Solvent B: 0.05% HCOOH HPLC grade MeCN • Pump program: 0-3 min 5-100% B, 3-30 min 100% B, 31-32 min 100%-5% B, 32-35 min 5% B • Flow rate: 1 mL/min • Detector wavelengths: 329 and 250 nm • Reference wavelength: 400 nm • Injection volume: 50 μL.
The RAL depletion percentages were calculated by normalization of retinol (ROL) and RAL-drug peak integrals, which were then plotted against reaction time. Least squares fit of the RAL depletion plot according to pseudo-first order kinetics yielded observed first order rate constant kobsd, and kapp is calculated according to kobsd=kapp[drug]. Kapp was calculated from the equilibrium concentrations of free RAL, free drug and RAL-drug according to equation (1). ΔGapp was calculated according to equation (2).

KT, equilibrium constant of tautomerism from imine to oxaminal (ring closed) [1]	ΔGT, free energy change of tautomerism from imine to oxaminal (ring closed) [1]	Structure (SMILES)	Kapp, apparent equilibrium constant of RAL depletion by drug [2]	kapp, apparent second order rate constant of RAL depletion by drug [2] [M⁻¹ s⁻¹]	ΔGapp, apparent free energy change of RAL depletion by drug [2] [kcal/mol]
>>1000	<<−4 kcal/mol	CC(C)(O)c1c(N)cnc2ccc(Cl)cc12 [Compound 2, 2-(3-amino-6-chloroquinolin-4-yl)propan-2-ol]	>2 × 10^7	0.5278	<-10
1.3	-0.155 kcal/mol	CC(C)(O)c1nc2ccc(Cl)cc2cc1N [Compound 3, 2-[3-amino-6-chloroquinolin-2-yl]propan-2-ol, reference compound]	1.55 × 10^5	0.9917	-7.4
>>1000	<<−4 kcal/mol	CC(C)(O)c1c(N)cnc2ccc(Cl)c(F)c12 [Compound 1, 2-(3-amino-6-chloro-5-fluoroquinolin-4-yl)propan-2-ol]	>2 × 10^7	0.8556	<-10
